Columns and labels:
PAR1 [1] = target: T1, PAR1 (Homo sapiens, UniProt P25116); experiment: PAR1-dependent RhoA activation (Rho-GTP) in platelets by tethered-ligand peptides; format: cell-based; conditions: 1 μM RWJ-56110
T1 construct: able to cleave PAR1 on the surface of human platelets; endogenous in cells; host or cells: gel-filtered or washed human platelets
T1 sequence (P25116 22-425): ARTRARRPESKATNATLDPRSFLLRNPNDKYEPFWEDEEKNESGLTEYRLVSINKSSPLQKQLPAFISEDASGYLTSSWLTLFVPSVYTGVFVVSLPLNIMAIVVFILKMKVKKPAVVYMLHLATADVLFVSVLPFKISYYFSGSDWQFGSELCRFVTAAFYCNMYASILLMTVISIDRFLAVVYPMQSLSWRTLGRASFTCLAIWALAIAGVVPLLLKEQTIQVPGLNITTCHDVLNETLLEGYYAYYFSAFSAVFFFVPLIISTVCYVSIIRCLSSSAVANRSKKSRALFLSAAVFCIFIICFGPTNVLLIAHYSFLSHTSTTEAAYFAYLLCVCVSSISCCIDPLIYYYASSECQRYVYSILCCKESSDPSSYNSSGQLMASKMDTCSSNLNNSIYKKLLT
Procedure: Gel-filtered human platelets, supplemented with 0.3 mg/mL fibrinogen, were treated with 0.2% DMSO vehicle, or 30 μM SFLLRN (TRAP), PR-TRAP or reversed peptide (RP-TRAP), for 5 min at 37° C. in presence or absence of 1 μM RWJ-56110 as indicated. Platelets were lysed and Rho-GTP and total Rho was determined by Western analysis as described in the Experimental Procedures. Western bands were quantified by densitometry and results expressed relative to fold-increase from basal.

PAR1 [2] = target: T1, PAR1; experiment: Platelet shape change (decrease in light transmittance); format: cell-based; conditions: 1 μM RWJ-56110
Procedure: In FIG. 3C, the ability of the […] peptide (PR-TRAP) to induce a change in platelet shape was determined. Washed human platelets were pretreated with 2 mM EGTA and then treated with the indicated agonists in the presence or absence of 1 μM RWJ-56110 while stirring at 1100 rpm. The decrease in light transmittance is an indication of the platelet shape change reaction.
In FIG. 4B, the ability of MMP-1 to induce platelet shape change was determined. Washed human platelets were pretreated with 2 mM EGTA and then challenged with MMP-1 in the presence or absence of 1 μM RWJ-56110 while stirring at 1100 rpm. Shape change was measured as described above.

PAR1 [3] = target: T1, PAR1; experiment: MMP-1-induced PAR1-dependent calcium flux in platelets; format: cell-based; conditions: RWJ-56110
Procedure: In FIG. 4C, the induction of PAR1-dependent calcium fluxes by MMP-1 was measured. Calcium flux measurements of gel filtered platelets following challenge with MMP-1 in the presence or absence of RWJ-56110 were performed at 25° C. with emission recorded at 510 nm and dual excitation at 340 and 380 nm as described (Kuliopulos. 1999).

PAR1 [4] = target: T1, PAR1; experiment: MMP-1-induced platelet aggregation; format: cell-based; conditions: 1 μM RWJ-56110
Procedure: In FIG. 4D, the induction of platelet aggregation by MMP-1 was determined. Gel-filtered platelets were challenged with MMP-1 in the presence or absence (0.2% DMSO vehicle) of the PAR1 inhibitor 1 μM RWJ-56110.

platelets [5] = experiment: Collagen-dependent aggregation of gel-filtered human platelets (light transmittance); format: cell-based; conditions: 5 μg/ml collagen; 1,10-PA 100 μM, MMP-200 200 nM, FN-439 3 μM, RWJ-56110 1 μM, PAR1 Ab 75 μg/ml, pepducins 3 μM, PPACK 200 μM, hirudin 1 U/ml
Procedure: Platelet pellets and their supernatants were prepared as follows. […] following established informed consent procedures. […] Alternatively, whole blood was obtained from Hartley Sprague guinea pigs (drawn from the vena cava) into 3% citrate plus 10 U/ml heparin. Washed platelets from the guinea pigs were prepared in PIPES buffer. Platelet aggregation was measured with a Chronolog 560VS/490-2D aggregometer using modified PIPES buffer as a blank. Samples were incubated for 5 min in the presence of inhibitors and 1.8 mM CaCl2 prior to addition of agonist. All reactions were in final volumes of 250 μl at 37° C. while stirring at 900 rpm.
The effect of pharmacologic blockage of metalloproteases or PAR1 on collagen-dependent platelet aggregation was then tested (see FIG. 5). Gel-filtered platelets from healthy individuals (supplemented with 0.3 mg/ml fibrinogen) were challenged with 5 μg/ml collagen in the presence or absence (0.2% DMSO vehicle) of the indicated inhibitors and allowed to stir at 900 rpm in an aggregometer cuvette (250 μL) at 37° C.
In FIG. 5A, platelet aggregation was monitored by light transmittance.

MAPKAP-K2 = experiment: Collagen activation of phospho-MAPKAP-K2 in platelets (data not shown); format: cell-based, human
platelets [6] = experiment: Platelet thrombus formation on collagen surface under arterial flow, heparin-anticoagulated whole blood; format: cell-based, human; conditions: heparin 10 U/mL; shear rate 1,000 s-1; FN-439 3 μM, RWJ-56110 1 μM, pepducins 3 μM, aspirin 1 mM
Procedure: Following incubation with inhibitors, the blood was perfused over a glass slide coated with fibrillar collagen type I.
A flow chamber (Glycotech) with Type-I fibrillar collagen-coated glass slides was mounted on the stage of an IMT-2 inverted microscope (Olympus) equipped with Retiga 1300 digital camera (QImaging) and 40× objective. One of the flow chamber inlets was connected to a syringe pump (Harvard Apparatus) calibrated to create a shear rate of 1,000^s-1. The whole blood pretreated with the various pharmacologic inhibitors was then perfused over the collagen-coated glass slide. After 2-15 min of perfusion, blood was removed from the flow chamber by gentle displacement with PIPES buffer and images of 8-10 fields were acquired using OpenLab software (Improvision). Acquired images were further analyzed using NIH Image 1.63 software. Images were first sharpened and the edges of separate platelets and platelet aggregates were determined. Following the adjustment of threshold, images were converted into the binary format, and the particle analysis function was activated to highlight the regions covered by platelets with the sensitivity set to one single adherent thrombocyte. For the conversion of pixels into square micrometers, a calibration curve was built using 2.5, 6, 20, 25, and 45 μm polystyrene beads (Polyscience) using acquisition conditions identical to the experimental. The mean area of formed thrombus was determined at 7 min. Area measurements in FIG. 6B represent the mean±s.e. of three separate experiments from five different blood donors.

platelets [7] = experiment: Clot retraction assay in human platelet-rich plasma, collagen initiated; format: cell-based; conditions: 2.5-5 μg/ml collagen (titration 1-20 μg/ml); FN-439 5 μM, RWJ-56110 1 μM, MMP9/13 Inh 10 nM; 90 or 240 min
Procedure: Platelet rich plasma (PRP) was isolated from human whole blood anti-coagulated with 4% sodium citrate. Clot retraction assays were done in 1 ml volumes containing 800 μl PBS and 200 μl PRP plus 10 μl red blood cells to enhance contrast. Samples were pretreated with FN-439 (5 μM), MMP9/13 Inh (10 nM) or RWJ-56110 (1 μM) for 15 min and clot formation was initiated with 1-20 μg/ml type I fibrillar collagen. Samples were incubated at 37° C. for 90 or 240 min and then photographed with a digital camera. Each photograph in FIG. 6I is representative of three independent experiments.

[8] = Carotid artery FeCl3 injury arterial thrombosis model; format: in vivo, guinea pig; conditions: RWJ-56110 0.5 mg/kg; P1pal-7 0.13 mg/kg i.v.
From the text: To assess the efficacy on arterial thrombosis by blockade of thrombin, MMP-1, or PAR1, a standard carotid artery FeCl3 injury model was used in guinea pigs. FeCl3 causes denudation of the artery and exposure of type I collagen and other subendothelial matrix proteins. The effects of blocking thrombin with bivalirudin, MMP-1 with FN-439, and PAR1 with either the small molecule antagonist RWJ-56110 or the P1pal-7 pepducin on arterial thrombosis were then compared using a dopier probe.
For these arterial thrombosis experiments, 10 min after i.v. administration of vehicle (−), bivalirudin, RWJ-56110, P1 pal-7 or FN-439 (n=4-5) through the jugular vein at the indicated concentrations, the right carotid arteries were injured for 20 min using a 24 mm^2 piece of Bio-Rad Trans-Blot paper soaked in 20% FeCl3. Arterial flow 5 mm distal to the site of injury was measured with a 0.5 V Doppler probe (Transonic Systems). An arterial occlusion was defined as a flow rate of <0.01 V for ≧5 min. Doppler measurements were terminated at the 30 min time point following injury (* designates p<0.05).

PAR1 [9] = experiment: Release of PAR1 N-terminal cleavage peptide from gel-filtered platelets (dot blot, IIaR-A antibody); format: cell-based, human; conditions: 5 μg/ml collagen, 10 min, 37° C.; Ab 20 μg/ml; ARC 0.5 μM; ASA 1 mM
From the text: To further understand how collagen is able to activate significant amounts of endogenous MMP-1 collagenase activity on the surface of platelets, experiments were devised to determine if PAR-1 is cleaved in either an autocrine or paracrine manner following exposure to collagen. Using a monoclonal antibody raised against the amino-terminal thrombin-cleavage peptide region of PAR1, residues 32-46 (Loew et al., 2000), the relative abilities of thrombin, MMP-1 and collagen to cause cleavage of platelet PAR1 was assessed. Gel filtered platelets were treated for 10 min with thrombin (3 nM), MMP-1 (3 nM), collagen (5 μg/ml), in the presence or absence (PBS buffer) of 0.00013 U hirudin or 5 μM FN-439 at 37° C. Supernatants were concentrated 20-fold and applied to nitrocellulose membranes, then probed with the IIaR-A monoclonal antibody. The PAR1 N-terminal thrombin deavage peptide (A26-R41) and PAR1 flexible linker peptide (N-acetyl-T67-L84 -C) (Kuliopulos et al., 1999) served as positive and negative controls (100 ng), respectively.
These platelets were then stimulated with collagen (5 μg/ml) for 10 min. at 37° C. Supernatants were concentrated 20-fold and applied to nitrocellulose membranes, then probed with the IIaR-A monoclonal antibody. […] FN-439, or an MMP1-blocking antibody (20 μg/ml) but not by thrombin inhibitor, hirudin (see FIG. 1E, FIG. 1G).

p38 MAPK = experiment: Collagen-induced phospho-p38 MAPK in platelets (western blot); format: cell-based, human; conditions: 5 or 20 μg/ml collagen or 10 nM MMP-1; ARC 0.5 μM, aspirin 1 mM
Procedure: The effect of pharmacologic blockage of metalloproteases or PAR1 on collagen-dependent platelet aggregation was then tested (see FIG. 5). […] Platelets were pre-incubated for 5 min with the thrombin inhibitors PPACK (200 μM) or hirudin (1 U/ml), the Zn-chelator 1,10-phenanthroline (1,10-PA; 100 μM), the broad spectrum metalloprotease inhibitor MMP-200 (200 nM), the MMP-1 inhibitor FN-439 (3 μM), the PAR1 ligand binding site inhibitor RWJ-56110 (1 μM), the PAR1 blocking antibody (75 μg/ml), the PAR1 pepducin lipopeptides P1pal-12 (3 μM) or P1pal-7 (3 μM), the PAR4 pepducin lipopeptide P4pal-10 (3 μM), MMP-8 inhibitor (25 nM) or MMP9/13 inhibitor (10 nM).
In FIG. 5B, platelets were treated as in FIG. 5A and then lysed with Laemmli sample buffer 5 min after addition of collagen, p38 MAPK activity was then assessed by western blot with a p38 MAPK phospho-Ab and total p38 loading was determined using a p38 MAPK antibody.

Rho-GTP = experiment: Collagen-induced Rho-GTP activity in platelets (western blot); format: cell-based, human; conditions: 5 or 20 μg/ml collagen or 10 nM MMP-1; ARC 0.5 μM, aspirin 1 mM
Procedure: In FIG. 5C, platelets were treated as in FIG. 5B and then Rho GTP activity was assessed by western blot.
Representative blots are shown at the bottom of FIGS. 5B-D. Data are the mean±s.d. of three experiments. P*<0.01, #<0.05.

platelets [10] = experiment: Platelet thrombus formation on collagen surface under arterial flow, CTI-anticoagulated whole blood; format: cell-based, human; conditions: CTI 30 μg/mL, hirudin 0.0013 U/mL, aspirin 1 mM
Procedure: Collagen-activated platelets also provide a pro-coagulant surface and produce tissue factor, which aids in the production of thrombin (Giesen at al., 1999; Mackman, 2004; Schwertz et al., 2006).
Whole blood was anti-coagulated with CTI (30 μg/mL) to block the contact pathway, otherwise the experiments were conducted identically as in FIG. 6A. Hirudin was used as indicated at 0.0013 UImL.

SMILES: NCC[C@H](NC(=O)[C@H](Cc1ccc(F)c(F)c1)NC(=O)Nc1ccc2c(CN3CCCC3)cn(Cc3c(Cl)cccc3Cl)c2c1)C(=O)NCc1ccccc1 [RWJ-56110]
- block of signaling induced by PR-TRAP (PAR1 [1]): completely blocked
- block of PR-TRAP-induced platelet shape change (PAR1 [2]): completely blocked
- inhibition of MMP-1-elicited platelet shape change (PAR1 [2]): inhibited
- inhibition of MMP-1-elicited calcium mobilization (PAR1 [3]): inhibited
- inhibition of MMP-1-elicited platelet aggregation (PAR1 [4]): inhibited
- inhibition (loss) of collagen-induced platelet aggregation (platelets [5]): 50%
- block of collagen-activation of phospho-MAPKAP-K2 (MAPKAP-K2): blocked
- attenuation of growth rate and size of platelet aggregate strings (platelets [6]): ~75%
- inhibition of clot formation and retraction (platelets [7]): nearly identical pattern of inhibition
- effect on mean occlusion time [8]: did not appreciably affect

SMILES: CC(=O)Oc1ccccc1C(=O)O [aspirin]
- block of collagen-induced release of PAR1 N-terminal peptide (PAR1 [9]): no effect
- effect on activation of phospho-p38 MAPK (p38 MAPK): no effect
- effect on activation of Rho-GTP (Rho-GTP): no effect
- attenuation of growth rate and size of platelet aggregate strings (platelets [6]): little or no effect
- effect on size of platelet micro-thrombi on collagen surfaces (platelets [10]): did not affect

From patent publication US9376499B2, “PAR-1 activation by metalloproteinase-1 (MMP-1)” (Tufts Medical Center, Inc., priority 2009, dated 2016)
